In PubChem BioAssay (NCI):
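A five-concentration, 48-hour dose response in 96-well plates underlies each endpoint, interpolated linearly between surrounding concentrations. At the GI50, growth is halved. TGI marks complete inhibition of growth.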 Where a SMILES comes first, the peptide text is derived from it.

Key:
Assay in all cases: NCI anticancer screen, dose series, 48 h
786-0 renal = test system: 786-0 renal
BT-549 breast = test system: BT-549 breast
HCT-15 colon = test system: HCT-15 colon
HL-60(TB) leukemia = test system: HL-60(TB) leukemia
HOP-62 NSCLC = test system: HOP-62 NSCLC
RXF 393 renal = test system: RXF 393 renal
SF-268 CNS = test system: SF-268 CNS
SN12C renal = test system: SN12C renal
SR leukemia = test system: SR leukemia
SNB-75 CNS = test system: SNB-75 CNS

SMILES | TGI (786-0 renal) | TGI (BT-549 breast) | TGI (HCT-15 colon) | TGI (HL-60(TB) leukemia) | TGI (HOP-62 NSCLC) | TGI (RXF 393 renal) | TGI (SF-268 CNS) | TGI (SN12C renal) | TGI (SR leukemia) | TGI (SNB-75 CNS) | GI50 (BT-549 breast) | GI50 (HOP-62 NSCLC) | GI50 (RXF 393 renal) | GI50 (SF-268 CNS) | GI50 (SN12C renal) | GI50 (SNB-75 CNS)
COc1cccc(OC/C(N=Cc2ccncc2)=N/NC(=O)c2ccncc2)c1 | > 100 µM | > 100 µM | > 100 µM | > 100 µM | > 100 µM | > 100 µM | > 100 µM | > 100 µM | – | – | – | – | – | – | – | –
COc1ccc(C[C@H]2COC(=O)[C@@H]2Cc2ccccc2)cc1OC | > 100 µM | – | – | – | > 100 µM | – | – | > 100 µM | > 100 µM | – | – | – | – | – | – | –
N#CC(NNC(=O)c1ccccc1O)c1ccc(O)cc1 (stereo unspecified) | > 100 µM | – | > 100 µM | 74.9 µM | > 100 µM | 12.2 µM | > 100 µM | > 100 µM | > 100 µM | – | – | – | – | – | – | –
CC(C)(C)C(=O)O[C@H]1C=C[C@@H](O)[C@@H]2[C@H]1[C@@H]1C=C[C@H]2C1 | > 100 µM | > 100 µM | 83.5 µM | 33.8 µM | – | – | > 100 µM | 41 µM | > 100 µM | > 100 µM | – | – | – | – | – | –
Cc1cc(=O)[nH]c(NN2C(Cl)C(=O)C2c2ccco2)n1 (stereo unspecified) | – | – | > 100 µM | 39.3 µM | > 100 µM | > 100 µM | > 100 µM | 77 µM | > 100 µM | 68 µM | – | – | – | – | – | –
O=C1/C(=C/c2cccs2)N=C(c2ccccc2)N1c1nc2ccccc2s1 | > 100 µM | > 100 µM | > 100 µM | > 100 µM | > 100 µM | 90.7 µM | 29.8 µM | > 100 µM | > 100 µM | – | – | – | – | – | – | –
S=c1oc(CCCCCCCCc2nn(CNc3ccc(Cl)cc3)c(=S)o2)nn1CNc1ccc(Cl)cc1 | > 100 µM | > 100 µM | > 100 µM | – | 76.1 µM | > 100 µM | > 100 µM | > 100 µM | – | > 100 µM | – | – | – | – | – | –
CCCCNC(=S)Nc1nc(C(=O)NNC(=S)NCc2ccccc2)cs1 | > 100 µM | > 100 µM | > 100 µM | – | > 100 µM | – | > 100 µM | > 100 µM | 27.5 µM | – | – | – | – | – | – | –
COC(C/C=C\C=C\CC/C=C/CC(C)/C=C/C(=C\C(=O)O)CC(=O)O)/C(C)=C\C=C(/C)C(=O)O (stereo unspecified) | – | > 100 µM | > 100 µM | – | > 100 µM | – | > 100 µM | > 100 µM | > 100 µM | > 100 µM | – | – | – | – | – | –
c1cc2c3c(c1)[C@@H]1O[C@@H]1c1cccc(c1-3)[C@@H]1O[C@H]21 | 75 µM | 98.5 µM | 47.2 µM | – | > 100 µM | 17.2 µM | 33.6 µM | 54.2 µM | > 100 µM | 70.1 µM | – | – | – | – | – | –
C=C1CN=C(Nc2ccc(F)cc2F)S1 | > 100 µM | – | > 100 µM | > 100 µM | > 100 µM | – | > 100 µM | > 100 µM | > 100 µM | > 100 µM | – | – | – | – | – | –
Clc1ccc(Cc2nc3ccccc3nc2-c2cccc(Cl)c2)cc1 | 3.63 µM | 16.7 µM | 3.46 µM | 6.29 µM | 38.1 µM | 4.66 µM | 44.4 µM | 8.63 µM | – | – | – | – | – | – | – | –
COc1ccccc1NC(=O)CSC(N)=O | 36.6 µM | – | > 100 µM | > 100 µM | 80.2 µM | – | > 100 µM | > 100 µM | > 100 µM | 84.3 µM | – | – | – | – | – | –
C=C1CC(Cn2cc(Br)c(=O)[nH]c2=O)(c2ccc(Br)cc2)OC1=O (stereo unspecified) | 3.27 µM | 8.25 µM | 3.85 µM | 2.74 µM | 31 µM | – | 41.3 µM | 20.8 µM | > 22.6 µM | 26.7 µM | – | – | – | – | – | –
CCC(C)C(NC(=O)C1CCCN1)C(=O)NC(C(=O)NCC(=O)NC(CC(N)=O)C(=O)NC(CC(C)C)C(=O)NC(CC(C)C)C(=O)NC(CCCCN)C(N)=O)C(C)C (stereo unspecified) (H-PIVGNLLK-NH2; configuration not given here) | > 75 µM | > 75 µM | > 75 µM | > 75 µM | > 75 µM | – | > 75 µM | > 75 µM | > 75 µM | – | – | – | – | – | – | –
Cc1ccc(C(=O)NN=C(/N=N/c2cccc(C)c2)c2ccc(N(C)C)cc2)cc1 | > 100 µM | > 100 µM | > 100 µM | > 100 µM | – | – | > 100 µM | > 100 µM | > 100 µM | – | – | – | – | – | – | –
O=C1/C(=C/C=C/c2ccccc2)CCC1CNc1ccc(Br)cc1 (stereo unspecified) | > 100 µM | > 100 µM | > 100 µM | > 100 µM | > 100 µM | > 100 µM | > 100 µM | > 100 µM | > 100 µM | – | – | – | – | – | – | –
NNc1nnc(-c2ccccc2)nc1Cc1ccccc1 | – | – | > 100 µM | 38 µM | 9.45 µM | > 100 µM | > 100 µM | 51.6 µM | > 100 µM | – | – | – | – | – | – | –
OCC1c2ccccc2-n2nc(-c3ccccc3)c(O)c21 (stereo unspecified) | 32.1 µM | 85.1 µM | 29.2 µM | – | > 100 µM | 31.9 µM | > 100 µM | 36.8 µM | – | > 100 µM | – | – | – | – | – | –
O=c1oc2ccccc2c(O)c1C(c1ccc(O)cc1)c1c(O)c2ccccc2oc1=O | > 100 µM | > 100 µM | > 100 µM | – | > 100 µM | – | 67.2 µM | > 100 µM | – | 97.8 µM | – | – | – | – | – | –
Cc1sc2nc3n(sc4nc5sc(C)c(C)c5c(=O)n43)c(=O)c2c1C | > 100 µM | > 100 µM | > 100 µM | > 100 µM | – | – | > 100 µM | > 100 µM | > 100 µM | 43.4 µM | – | – | – | – | – | –
CCn1c(O)c(C(=O)NC(C)c2ccc([N+](=O)[O-])cc2)c(=O)n(CC)c1=S (stereo unspecified) | 11.7 µM | 8.8 µM | 10.7 µM | 5.11 µM | 6.54 µM | 12 µM | 15.3 µM | 15 µM | – | 5.34 µM | – | – | – | – | – | –
CCn1c(SCc2nnc(Nc3ccccc3)s2)nc2ccccc2c1=O | 3.97 µM | 26.7 µM | > 100 µM | – | 12.5 µM | 19.1 µM | 22.3 µM | 18.2 µM | 61.4 µM | 14.2 µM | – | – | – | – | – | –
CCOC(=O)/C(C1=N[C@H](C(=O)OCC)CS1)=C(\O)c1ccccc1 | – | – | > 100 µM | > 100 µM | > 100 µM | > 100 µM | > 100 µM | > 100 µM | > 100 µM | > 100 µM | – | – | – | – | – | –
C=C1C(=O)O[C@H]2[C@H]1CC/C(COC(=O)/C=C/C(=O)OC/C1=C/CC[C@@]3(C)O[C@H]3[C@H]3OC(=O)C(=C)[C@@H]3CC1)=C\CC[C@@]1(C)O[C@@H]21 | – | 4.41 µM | – | – | > 100 µM | 0.713 µM | > 100 µM | 4.04 µM | – | 66.9 µM | 1.58 µM | 5.43 µM | 0.297 µM | 3.19 µM | 1.49 µM | 3.47 µM
